Measurements: patent US20090124608A1, “CB2 Receptor Modulators In Neurodegenerative Diseases And Applications Of The Same” (priority 2006, published 2009)
“Also recorded” adds a separate entry of the source.

Assays:
[1] = tested on: cannabinoid receptors; experiment: GTPγS binding in end stage spinal cord homogenates from G93A-SOD1 mice, separated by gender; type: biochemical, mouse; details: for 2-AG stimulated G-protein activation remaining on co-incubation with CB2 ligand / HU-210 stimulated G-protein activation remaining on co-incubation with CB2 ligand: ligand 1 μM
Experimental: (§1) [^35S]GTPγS binding assays were performed as described previously (Prather et al. 2000a) in a buffer containing 20 mM Hepes, 100 mM NaCl, and 10 mM MgCl2 at pH 7.4. Each binding reaction contained 10 μg of spinal cord membrane protein, the presence or absence of cannabinoid ligands (see following), plus 0.1 nM [^35S]GTPγS (1250 Ci/mmol, Perkin Elmer Life and Analytical Sciences) and […] of GDP to suppress basal G-protein activation. Reactions were incubated for 2 hrs at 30 °C. Non-specific binding was defined by binding observed in the presence of 10 μM of non-radioactive GTPγS. The reaction was terminated by rapid vacuum filtration through glass fiber filters followed by two washes with ice-cold assay buffer. 4 mL of scintiverse® (Fisher Scientific) was added to the filters and radioactivity quantified by scintillation counting.
Harvested spinal cords from the vehicle treated control groups at the end-stage of their disease were separated by gender and used to conduct GTP7S binding experiments, which measure the capability of a ligand to promote or suppress G-protein activation.
It was next determined if the selective CB2 ligands antagonize G-protein activation produced by an endocannabinoid such as 2-AG as well.

[2] = tested on: CB1 and CB2 receptors; experiment: [35S]GTPγS binding with selective agonists in mouse spinal cord membranes; type: biochemical; details: data not shown
Experimental: as §1
We initially attempted to compare CB 1 and CB2 receptor activation of G-proteins between WT-OE and G93A spinal cord membranes by conducting [^35S]GTPγS binding assays in the presence of selective agonists.

[3] = molecular target: CB1 receptors; details: cited from earlier work; for Ki: literature value, read-out: Ki at CB1 receptors
[4] = molecular target: CB2 receptors (Homo sapiens, UniProt P34972); details: cited from earlier work
CB2 receptors, sequence (P34972 whole entry): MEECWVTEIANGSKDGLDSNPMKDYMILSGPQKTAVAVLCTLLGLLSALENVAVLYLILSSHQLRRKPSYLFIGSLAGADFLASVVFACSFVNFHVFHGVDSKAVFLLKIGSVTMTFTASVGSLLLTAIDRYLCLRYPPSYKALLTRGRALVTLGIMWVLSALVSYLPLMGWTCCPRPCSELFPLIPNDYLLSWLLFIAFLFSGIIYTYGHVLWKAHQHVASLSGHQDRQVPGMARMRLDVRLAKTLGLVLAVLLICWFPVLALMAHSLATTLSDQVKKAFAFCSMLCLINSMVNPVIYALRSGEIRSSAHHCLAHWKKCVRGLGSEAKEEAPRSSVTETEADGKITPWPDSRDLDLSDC

[5] = tested on: G93A-SOD1 mice; experiment: Survival of G93A mice, daily i.p. treatment initiated at symptom onset; type: in vivo, mouse; details: for survival improvement versus vehicle, females: female G93A mice; for survival improvement versus vehicle, females / survival improvement versus vehicle, males: 3 mg/kg for AM-1241 and AM630, JTE-907 dose not given; for survival improvement versus vehicle, males: male G93A mice
Source text: Hemizygous transgenic male mice with the G93A mutation of the human SOD1 gene (G1H/1) mutation (B6SJL-TgN (SOD1-G93A) 1 Gur) were obtained from Jackson Laboratories and were bred locally with female B6SJL mice (Jackson Laboratory), according to the protocol obtained from the vendor. To decrease the inherent variability in disease onset and survival with these mice, littermate transgenic males (rather than random males from several different litters) were selected to sire subsequent generations of mice.
Determination of symptom onset, randomization and drug treatment of G93A mice. Symptom onset was assessed by blinded observation of changes in hind limb gait; these changes are related to the mouse's inability to support its weight on its hind limbs. At onset, mice initially place their weight on the toes and then quickly fall to full foot placement (as opposed to healthy mice which walk and run on the hind toes); this “toe-to-heel” walking pattern produces an asymmetric gait between hind and fore limbs and a characteristic “wobbling” gait. Mouse groups were randomized based on symptom onset and alternately placed in control and treated groups, e.g., the first mouse to develop hind limb weakness was placed in the control group, the second was injected with test compound and placed in the treatment group, and so on. […] By definition, the onset administration paradigm employed was focused on what we term the “survival interval”—namely the time from onset to end-stage sacrifice.
Mice were sacrificed when any of the following criteria were met: (1) inability to right themselves within 30 seconds when placed on their sides; (2) inability to eat or drink, or move toward food and water placed in low-rimmed dishes on cage floor; (3) loss of more than 10% of total body weight in 24 hours; (4) gross loss of grooming behavior; or (5) labored breathing. Criteria for death were confirmed by a second investigator who is blinded to the group identity of each mouse. The age of symptom onset was subtracted from the age at death for each mouse, and a mean survival interval was calculated for each group. By calculating the ratio of the survival interval of treated groups to the survival interval of untreated littermate controls, a X-fold increase in survival was readily determined.
The effect of chronic administration of cannabinoids on the survival of G93A mice was next examined (FIG. 4). […] The number of days between symptom onset and animal sacrifice was measured (e.g., survival interval). In humans, this is analogous to the time between diagnosis of ALS and death, ranging from 2-5 years.

[6] = tested on: G93A-SOD1 mice; experiment: Motor function test (clinging to perpendicular wire mesh screen for 60 seconds) in G93A mice; type: in vivo, mouse; details: for improvement in motor function versus vehicle, females: female G93A mice; for improvement in motor function versus vehicle, females / improvement in motor function versus vehicle, males: time to loss of ability to cling 60 seconds; for interval between mean loss of motor function and death, females: female mice, vehicle 19.0 days; for improvement in motor function versus vehicle, males: male G93A mice; for interval between mean loss of motor function and death, males: male mice, vehicle 20.5 days
Experimental: Beginning on the first day of observing symptoms, mice were tested for motor function biweekly until sacrifice. Motor function testing was initiated by gently placing animals on a horizontal wire mesh screen. The screen was slowly rotated to be perpendicular to the ground (90°). The duration that mice were able to hang onto the perpendicular wire mesh up to a maximum of 120 seconds was recorded. Because vehicle treated mice on average lost the ability to cling to the wire mesh for 60 seconds in the middle of their survival curve, this “all or none” response was utilized to compare motor function across all treatment groups. Kaplan-Meier time-to-event statistics were employed to analyze the data. The event was defined as the number of days after symptom onset that each individual animal was no longer able to cling to the wire mesh screen for 60 seconds.
Testing twice a week for the duration of the study provided a quantifiable decline during disease progression. Mice were placed on a horizontal wire mesh screen that was gently inverted to 90°. Kaplan-Meier time-to-event curves were used to analyze the data. The event was defined as the day each animal was no longer able to cling to the perpendicular screen for 60 seconds. […] The disparity between male and female motor function was paralleled by the interval between survival for the genders. Male mice survived an average of 39.6±2.0 (FIG. 6a) days past the onset of symptoms, while females lived 9 days longer than males (p<0.0018*, FIG. 6b). For males and females, loss of motor function preceded death by 20.5 (p<0.0002***) and 19.0 days (p<0.0028**), respectively.

[7] = Water solubility and dissolution in vehicles; details: for stable dissolution in tested vehicles: ethanol/water, glycerol, polyethylene glycol, high purity olive oil tested
[8] = tested on: CB1/CB2 receptors; experiment: [35S]GTPγS binding, selective antagonism of HU-210, WT-OE spinal cord membranes; type: biochemical, mouse
[9] = tested on: CB1/CB2 receptors; experiment: [35S]GTPγS binding, selective antagonism of HU-210, G93A spinal cord membranes; type: biochemical, mouse
[10] = G93A mice, i.p. daily from onset, 3.0 mg/kg
[11] = daily injections initiated at symptom onset
[12] = female homogenates, HU-210 100 nM
[13] = male homogenates, HU-210 100 nM
[14] = WT-OE spinal cord membranes, HU-210 100 nM, antagonist 3 μM

With `CCCCCC=CCC=CCC=CCC=CCCCC(=O)OC(CO)CO` [2-AG, (5Z,8Z,11Z, 14Z)-5,8,11,14-Eicosatetraenoic acid, 2-hydroxy-1-(hydroxymethyl) ethyl ester] the “[35S]GTPγS binding to G-proteins produced by agonist” value (“[35S]GTPγS binding … by agonist” below) ([1]; female spinal cord homogenate, 2-AG 3 μM) was 29.93±3.3 fmole/mg protein, the “Emax of G-protein activation” value ([1]; female transgenic spinal cord) was 17.81±1.89 and the “[35S]GTPγS binding … by agonist” value ([1]; male spinal cord homogenate, 2-AG 3 μM) was 31.30±1.7 fmole/mg protein. The “Emax of G-protein activation” value ([1]; male transgenic spinal cord) was 23.21±5.82.

In the case of `CCCCC/C=C\C/C=C\C/C=C\C/C=C\CCCC(=O)NCCCl` [ACEA, (all Z)-N-(2-cycloethyl)-5,8,11,14-eicosatetraenamide], the “G-protein activation by selective agonist” value [2] is reported as “failed attempts to demonstrate consistent, measurable G-protein activation; also recorded: unable to demonstrate consistent, measurable G-protein activation”.

In the case of `Cc1c(C(=O)NN2CCCCC2)nn(-c2ccc(Cl)cc2Cl)c1-c1ccc(I)cc1` [AM-251, N-(Piperidin-1-yl)-5-(4-iodophenyl)-1-(2,4-dichlorophenyl)-4-methyl-1H-pyrazole-3-carboxamide], the Ki [3] is given as about 7 nM and the “affinity at CB2 receptors weaker than at CB1” value ([4]; Gatley et al. 1997) is given as “over 300 fold”.

For `COc1ccc(C(=O)c2c(C)n(CCN3CCOCC3)c3cc(I)ccc23)cc1` [AM-630], the “Survival Interval Ratio (SIR)” value [5, 10] was 2.30, the “Total Life-Span Ratio (TLR)” value [5, 10] was 1.27 and the “survival compared with AM-1241 treated mice” value ([5]; G93A-SOD1 mice) was “survived twice as long as those mice treated with AM-1241”. For the same compound, the “extension of total life-span versus controls” value [5, 11] was 27%, the “living longer after symptom onset than controls (survival interval increase)” value [5, 11] was 130% and the “survival improvement versus vehicle, females” value [5] was 8%. The “survival improvement versus vehicle, males” value [5] was 27%, the “effect on survival of G93A-SOD1 mice” value ([5]; treatment initiated at symptom onset) was “pronounced increase in survival” and the “improvement in motor function versus vehicle, females” value [6] was 48%. The “interval between mean loss of motor function and death, females” value [6] was 8.7 days, the “improvement in motor function versus vehicle, males” value [6] was 64% and the “interval between mean loss of motor function and death, males” value [6] was 18.9 days. For the same compound, the “2-AG stimulated G-protein activation remaining on co-incubation with CB2 ligand” value ([1]; female homogenate, 2-AG 3 μM) was 8.49±3.7 fmole/mg protein, the “HU-210 stimulated G-protein activation remaining on co-incubation with CB2 ligand” value [1, 12] was 17.76±3.3 fmole/mg protein and the “2-AG stimulated G-protein activation remaining on co-incubation with CB2 ligand” value ([1]; male homogenate, 2-AG 3 μM) was 6.66±3.9 fmole/mg protein. For the same compound, the “HU-210 stimulated G-protein activation remaining on co-incubation with CB2 ligand” value [1, 13] was 21.02±5.6 fmole/mg protein, the “affinity for CB1 receptors less than for CB2” value ([3]; Hosohata et al. 1997) was “more than 165 fold” and the Ki ([4]; literature value, read-out: Ki at CB2 receptors) was about 20 nM. The “water solubility” value [7] was “very poor water solubility” and the “stable dissolution in tested vehicles” value [7] was “achieved only with olive oil”.

For `CCCCCCC(C)(C)c1cc(O)c2c(c1)OC(C)(C)[C@@H]1CC=C(CO)C[C@@H]21` [HU-210, (−)-11-Hydroxy-delta(8)-tetrahydrocannabinol-dimethylheptyl], the “[35S]GTPγS binding … by agonist” value ([8]; WT-OE spinal cord membranes, HU-210 100 nM) was 30.7±6.2 fmole/mg protein, the “[35S]GTPγS binding … by agonist” value ([9]; G93A spinal cord membranes, HU-210 100 nM) was 57.4±4.4 fmole/mg protein and the “[35S]GTPγS binding … by agonist” value ([1]; female spinal cord homogenates, HU-210 100 nM) was 40.59±8.5 fmole/mg protein. For the same compound, the “[35S]GTPγS binding … by agonist” value ([1]; male spinal cord homogenates, HU-210 100 nM) was 35.51±5.6 fmole/mg protein and the Ki [3] was about 0.5 nM.

For `CCCCCOc1c(OC)ccc2cc(C(=O)NCc3ccc4c(c3)OCO4)c(=O)[nH]c12` [JTE-907], the “survival improvement versus vehicle, females” value [5] was 25%, the “survival improvement versus vehicle, males” value [5] was “did not live significantly longer” and the “improvement in motor function versus vehicle, females” value [6] was 92%. For the same compound, the “interval between mean loss of motor function and death, females” value [6] was 4 days, the “improvement in motor function versus vehicle, males” value [6] was 61% and the “interval between mean loss of motor function and death, males” value [6] was 10.7 days. For the same compound, the “reduction of HU-210 induced G-protein activation (CB2 receptor antagonism)” value ([1]; female homogenate) was 31.34 fmole/mg protein, the “2-AG stimulated G-protein activation remaining on co-incubation with CB2 ligand” value ([1]; female homogenate, 2-AG 3 μM) was 5.96±0.97 fmole/mg protein and the “HU-210 stimulated G-protein activation remaining on co-incubation with CB2 ligand” value [1, 12] was 9.25±1.2 fmole/mg protein. The “reduction of HU-210 induced G-protein activation (CB2 receptor antagonism)” value ([1]; male homogenate) was 12.31 fmole/mg protein, the “2-AG stimulated G-protein activation remaining on co-incubation with CB2 ligand” value ([1]; male homogenate, 2-AG 3 μM) was 18.14±2.1 fmole/mg protein and the “HU-210 stimulated G-protein activation remaining on co-incubation with CB2 ligand” value [1, 13] was 23.3 fmole/mg protein. For the same compound, the “water solubility” value [7] was “very poor water solubility” and the “stable dissolution in tested vehicles” value [7] was “achieved only with olive oil”.

With `Cc1c(C(=O)c2cccc3ccccc23)c2cccc3c2n1C(CN1CCOCC1)CO3` (stereo not drawn) [WIN-55,212-2, [2,3-Dihydro-5-methyl-3-[(morpholinyl)methyl]pyrrolo-[1,2,3-de]-1,4-benzoxazin-yl]-(1-naphthalenyl)methanone] the “increase in survival interval versus vehicle” value ([5]; 5 mg/kg daily i.p.) was 8.8 days, the “survival interval (symptom onset to sacrifice)” value ([5]; 5 mg/kg daily i.p., vehicle 23.7+/−1.7 days) was 32.5 ± 3.6 days and the “water solubility” value [7] was “very poor water solubility”. For the same compound, the “stable dissolution in tested vehicles” value [7] was “achieved only with olive oil”.

In the case of “(−)-cis-3-[2-Hydroxy-4-(1,1-dimethylheptyl)-phenyl]-trans-4-(3-hydroxypropyl)-cyclohexanol) [CP-55,940]”, the Ki [3] is given as about 0.5 nM.

For “N-[(1S)-endo-1,3,3-Trimethylbicyclo[2.2.1]heptan-2-yl]-5-(4-chloro-3-methylphenyl)-1-(4-ethoxybenzyl)-pyrazole-3-carboxamide [SR-144528]”, the “net reduction of HU-210-induced G-protein activation” value ([8]; WT-OE membranes, antagonist 3 μM) was 15.6 fmoles/mg protein, the “% blockade of HU-210-induced G-protein activation” value [8, 14] was “approximately 50%” and the “HU-210 stimulated [35S]GTPγS binding remaining on co-incubation with antagonist” value [8, 14] was 15.1±1.1 fmole/mg protein. For the same compound, the “% blockade of HU-210-induced G-protein activation” value [9] was 49%, the “HU-210 stimulated [35S]GTPγS binding remaining on co-incubation with antagonist” value [9] was 29.5±6.4 fmole/mg protein and the “net reduction of HU-210-induced G-protein activation” value [9] was 27.9 fmole/mg protein.
